Results: patent US9156824B2, “CDC7 inhibitors” (Eli Lilly and Company, priority 2013, dated 2015)
Read-outs that look alike come from different tables or passages of the source.

Columns and labels:
CDC7/DBF4 = biological target: T1, CDC7/DBF4 (Homo sapiens, UniProt O00311); test: CDC7/DBF4 in vitro enzyme assay (Transcreener Kinase ADP-FP); assay type: biochemical; details: ATP 5 μM, MCM2 400 nM, 60 minutes, read-out: IC50 against CDC7/DBF4 kinase
T1 construct: host or cells: insect cells
Procedure: The Transcreener™ Kinase ADP-FP assay is used to determine compound IC50 values against CDC7/DBF4 kinase. The Kinase ADP-FP assay assesses the activity of CDC7/DBF4 in the presence of compound inhibitors by measuring the concentration of ADP formed in a kinase reaction. The kinase reaction is performed using a 25 microliter reaction volume in 96 well assay plate. For the ADP-FP assay, the reagents are added to obtain the final reaction conditions of HEPES (25 mM) pH 7.5, 0.03% Triton® X-100, magnesium chloride (10 mM), DTT (1 mM), MCM2 (400 nM) (Amino Acid 1-209, a physiological substrate of CDC7/DBF4), spermine (4 mM), CDC7/DBF4 (2,640 ng/mL) (recombinant human CDC7/DBF4 expressed in insect cells), 4% dimethyl sulfoxide and serial dilutions of compound (diluted 1:3 from 20,000 nM to 1 nM). Enzyme and substrate is added to compound followed by ATP to 5 μM to start the reaction. The plates are incubated at room temperature for 60 minutes.
For the ADP-FP format add 25 microliters of a quench detection reagent containing HEPES (52 mM) pH 7.5, EDTA (20 mM), sodium chloride (0.4 M), polyoxyethyleneglycol dodecyl ether (0.02%) (BRIJ-35™), anti-ADP antibody (10 μg/mL), and ADP (4 nM) Transcreener® ADP Alexa Fluor® 633 tracer to quench the reaction. The plates are incubated for 1 hour, and then read in a Wallac EnVision™ 2104 Multilabel Reader (PerkinElmer) in Fluorescence Polarization mode using polarizing filters of Ex620nm and Em688nm wavelength. Millipolarization (mP) raw data is converted to micromolar ADP using a prepared ADP/ATP standard curve starting at 5 μM ADP 1:1 serial dilution in reaction buffer to 0.0025 μM ADP. The IC50 value for each compound is derived using percent inhibition data calculated from the μM ADP reaction data relative to on-plate controls (DMSO versus 100 mM EDTA inhibited enzyme controls). The percent inhibition and ten-point compound concentration data is then fitted to a four-parameter logistic equation.

[1] = tested on: phosphorylated MCM2 at Serine 53 (pMCM2-S53) in H1299 cells; test: Acumen imaging assay for detection of phosphorylated MCM2 in H1299 cells; assay type: cell-based; details: 4 hours treatment, read-out: IC50, inhibition of pMCM2-S53
Procedure: The Acumen® eX3 is used to determine the effect of compounds on the formation of endogenous phosphorylated MCM2 at Serine 53 (pMCM2-S53). Phosphorylation of MCM2 by CDC7 is determined using specific anti-pMCM2-S53 antibody and quantified with fluorescent tagged secondary antibodies by Acumen® eX3 to monitor CDC7 activity in cells. Phosphorylation of MCM2 at Serine 53 is known to be correlated to CDC7 inhibition.
H1299 cells (ATCC #CRL-5803) are maintained in RPMI-1640 (Hyclone SH30809.01) growth medium supplemented with 10% FBS. Cells are harvested using standard cell culture procedures and then counted using Vi-Cell XR Cell Viability Analyzer (Beckman Counter). 3000-6000 H1299 cells in 100 μL of growth medium are plated into each well of Biocoat Poly-D-Lysine 96-well black/clear plate with flat bottom BioCoat™ Multiwell (Becton Dickinson) cell culture plates 356640 and incubated overnight at 37° C., 5% CO2.
Cells are treated with the test compound (50 μL/well) diluted in medium containing 0.6% DMSO and incubated for 4 hours at 37° C. To each well is added 7.4% formaldehyde (150 μL) diluted with PBS from 37% formaldehyde stock and the plates are incubated at room temperature for 30 minutes. Formaldehyde is removed and cold methanol (100 μL) is added. The plates are incubated for 20 minutes at 4° C. to permeabilize the cells. Plates are washed 3× with 100 μL/well of PBS. […] The plates are sealed with black seal and are read on the Acumen® eX3 (TTP LABTECH) using optical filter 500-530 nanometer and 575-640 nanometer for Alexa Fluor 488 and propidium iodide, respectively. The number of pMCM2-S53 positive cells is normalized to total cells for each well and are calculated as percent inhibition relative to on-plate controls. […]

[2] = tested on: pMCM2-S40/41 in Colo-205 xenograft tumors; test: CDC7 in vivo target inhibition (IVTI) on pMCM2-S40/41 with Colo-205 xenograft tumor model; design: species or system mice; details: 4 hours following an oral dose
Procedure: Human colo-205 colorectal cancer cells (ATCC#CCL-222) are maintained in RPMI 1640 medium containing 10% FBS. Log phase growing cells are harvested, washed, and resuspended in a 1:1 mixture of serum free medium and Matrigel™ (Becton Dickinson). They are injected subcutaneously at 5×10^6 cells/animal/site in the rear flank as subcutaneous tumor xenograft models in balb/c (nu/nu) female mice (6-8 weeks with body weight of 20 to 25 gram/mouse). Animals are randomized at the mean tumor volume of 150 to 250 mm^3 mice, (v=1×w×0.536 where 1=larger of measured diameter and w=smaller of perpendicular diameter). Compound is administered by P.O. in a standard 1% HEC w/v, P80 0.25% v/v, Antifoam 1510-US 0.05% v/v formulation. […] Protein concentration from tumor lysates is determined by BCA assay (Thermo Scientific) and 5 to 10 μg of protein is separated by standard SDS-PAGE (BioRad Criterion™ gel) or (Invitrogen ePage™ gel). […] Levels of pMCM2-S40/41 are determined and quantified by either Licor or FUJI imagers and normalized to the total GAPDH level. The percent change inhibition of pMCM2-S40/41 band intensity is calculated using the average intensity of vehicle treated control tumors normalized to the GAPDH as the maximum signal. […]

[3] = tested on: panel of 114 cancer cell lines of colorectal, breast, lung, and blood (leukemia) origin; test: In vitro antiproliferative assay (cell number counting); assay type: cell-based; details: for Number of Cell Lines that Die Rapidly: within 2 doubling times
Procedure: In vitro anti-proliferative activity of Example 2 is determined by cell number counting assays against a panel of 114 cancer cell lines of colorectal, breast, lung, and blood (leukemia) origin obtained from ATCC, HSRRB, RIKEN or ECACC. The cells are cultured and maintained in media per supplier's instructions. Cell doubling time of each cell line is determined and all cell lines are free of mycoplasma contamination. Cells are cultured overnight in 96-well plates before compound addition for anti-proliferative activity assays. Optimal cell seeding density is carefully evaluated for each cell lines by seeding the cell culture with 4 different cell densities in 100 μL media and taking into consideration of their doubling time and cell sizes. The seeding density that gave about 90% confluence at end of two doubling times is then selected for compound testing. Staurosporine is used with 1:3 dilution as a reference. Example 2 is prepared as a 4 mM DMSO stock and diluted in culture media in a 1:2 ratio. 50 μL of the media containing the compound is added to each well of the overnight 96-well culture to produce the desired final concentrations of 20, 10, 5, 2.5, 1.25, 0.625, 0.312, 0.156, 0.078 μM and DMSO control. Each treatment concentration has duplicate wells. The cells are further cultured for two doubling times in the presence of the compound. At end of treatment time, cells are first examined under a microscope for morphological changes, such as cell death or apparent cell size increases. Cells in each duplicate well are collected separately. Adherent cells are harvested by tripsinization first. Harvested cells are re-suspended in growth media and are counted using a cell counter.

T1 sequence (O00311 whole entry): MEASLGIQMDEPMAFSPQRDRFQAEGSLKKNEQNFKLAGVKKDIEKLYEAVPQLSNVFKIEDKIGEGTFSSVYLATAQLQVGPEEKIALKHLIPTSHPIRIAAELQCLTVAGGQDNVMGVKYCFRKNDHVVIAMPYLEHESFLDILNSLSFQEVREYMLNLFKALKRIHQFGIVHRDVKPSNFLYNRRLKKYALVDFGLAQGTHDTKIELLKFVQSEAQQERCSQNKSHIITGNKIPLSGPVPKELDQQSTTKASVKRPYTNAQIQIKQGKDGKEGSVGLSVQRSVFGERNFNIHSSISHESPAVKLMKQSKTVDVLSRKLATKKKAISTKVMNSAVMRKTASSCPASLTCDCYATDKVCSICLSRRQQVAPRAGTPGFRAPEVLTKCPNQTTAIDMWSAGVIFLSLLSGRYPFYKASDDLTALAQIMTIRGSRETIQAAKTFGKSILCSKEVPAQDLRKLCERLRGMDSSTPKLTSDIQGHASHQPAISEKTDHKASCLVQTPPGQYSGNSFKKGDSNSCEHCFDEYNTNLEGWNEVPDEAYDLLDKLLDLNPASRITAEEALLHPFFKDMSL
T1 sequence (Q9UBU7 whole entry partner): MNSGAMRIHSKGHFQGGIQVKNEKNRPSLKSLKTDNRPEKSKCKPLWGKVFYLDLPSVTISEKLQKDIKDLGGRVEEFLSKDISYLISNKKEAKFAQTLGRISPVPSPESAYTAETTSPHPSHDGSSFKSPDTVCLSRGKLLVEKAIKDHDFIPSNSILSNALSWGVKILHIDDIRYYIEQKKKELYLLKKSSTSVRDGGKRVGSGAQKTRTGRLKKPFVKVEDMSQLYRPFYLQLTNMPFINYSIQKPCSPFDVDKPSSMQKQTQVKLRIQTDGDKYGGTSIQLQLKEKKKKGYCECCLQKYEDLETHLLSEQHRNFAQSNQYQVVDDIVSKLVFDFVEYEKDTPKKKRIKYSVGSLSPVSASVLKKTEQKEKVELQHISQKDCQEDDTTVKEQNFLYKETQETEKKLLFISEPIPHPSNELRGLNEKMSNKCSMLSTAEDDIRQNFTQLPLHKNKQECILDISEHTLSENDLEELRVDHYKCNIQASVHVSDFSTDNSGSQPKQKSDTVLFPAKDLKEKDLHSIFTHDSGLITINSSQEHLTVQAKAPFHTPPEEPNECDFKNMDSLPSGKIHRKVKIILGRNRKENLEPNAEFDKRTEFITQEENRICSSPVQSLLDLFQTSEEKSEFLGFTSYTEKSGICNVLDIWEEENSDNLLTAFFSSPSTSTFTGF

SMILES: CC1(c2ncncc2F)NC(=O)c2cc(-c3cn[nH]c3)ccc21 (single isomer, unassigned) [Example 3, 3-(5-Fluoropyrimidin-4-yl)-3-methyl-6-(1H-pyrazol-4-yl)isoindolin-1-one]
- IC50 (CDC7/DBF4): 4.5 nM
- IC50 [1]: 290 nM
- TEC70 (plasma concentration for 70% inhibition of pMCM2 normalized to GAPDH) [2]: 1.8 μM
- TED70 (dose for 70% inhibition of pMCM2 normalized to GAPDH) [2]: 2.6 mg/kg

SMILES: CC1(c2ncncc2F)NC(=O)c2cc(-c3cn[nH]c3)ccc21 (single isomer, unassigned; isomer 2) [Example 2, 3-(5-Fluoropyrimidin-4-yl)-3-methyl-6-(1H-pyrazol-4-yl)isoindolin-1-one, Isomer 2]
- IC50 (CDC7/DBF4): 3.7 nM
- IC50 ([1]; Homo sapiens, NCI-H1299, 4 h): 261 nM
- Number of Cell Lines that Die Rapidly ([3]; Breast, of 17 cell lines): 0
- Number of Cell Lines that Die Rapidly ([3]; Colorectal, of 29 cell lines): 4
- Number of Cell Lines that Die Rapidly ([3]; Leukemia, of 23 cell lines): 5
- Number of Cell Lines that Die Rapidly ([3]; Lung, of 39 cell lines): 2
- Number of Cell Lines that Die Rapidly ([3]; Others, of 6 cell lines): 1
- Number of Cell Lines that Die Rapidly ([3]; Total, of 114 cell lines): 12
- IC50 ([3]; majority of the 114 cancer cell lines tested, read-out: anti-proliferative activity, pharmacologically relevant concentrations): < 8000 nM
- cancer cell lines showing particular sensitivity (massive cell death) ([3]; share of the 114 cell lines, within 2 doubling time treatment periods): about 10%
